Data as given in patent US6911446B2, “Methods of modulating serine/threonine protein kinase function with quinazoline-based compounds” (Sugen, Inc., priority 1997, dated 2005).

What was measured:
[1] = test system: A549 human lung carcinoma cells; assay: Growth of A549 cells (SRB); format: cell-based
Protocol: The following assay measures growth rates for A549 cells. The purpose of the assay is to determine the effects of compounds on the growth of A549 human lung carcinoma cells. A549 cells are readily accessible from commercial sources, such as ATCC (CCL185).
• 96-well flat bottom sterile plates • 96-well round bottom sterile plates • sterile 25 mL or 100 mL reservoir • pipets, multi-channel pipetman • sterile pipet tips • sterile 15 mL and 50 mL tubes Reagents: • 0.4% SRB in 1% acetic acid • 10 mM Tris base • 10% TCA • 1% acetic acid • sterile DMSO (Sigma) • compound in DMSO (100 mM or less stock solution) • Trypsin-EDTA (GIBCO BRL) Cell Line and Growth Medium: • A549 human lung carcinoma cells (ATCC CCL185) • 10% fetal calf serum in Ham's F12-K Protocol: Day 0: Cell Plating:
This part of assay is carried out in a laminar flow hood. • 1. Trypsinize cells. Transfer 200 μL of cell suspension to 10 mL of isotone. Count cells with a Coulter Counter. • 2. Dilute cells in growth medium to 20,000 cell/mL. Transfer 100 μL of cells to each well in a 96-well flat bottom plate to give 2000 cells/well. • 3. Use half of plate (4 rows) for each compound and quadruplicate wells for each compound concentration, and a set of 4 wells for medium control. • 4. Gently shake plates to allow for uniform attachment of the cells. • 5. Incubate the plates at 37° C. in a 10% CO2 incubator. Day 1: Addition of Compound:
This part of assay is carried out in a laminar flow hood. • 1. In a 96 well-round bottom plate, add 120 μL of growth medium containing 2×final %DMSO found in highest screening concentration of compound to columns 1 to 11. For example, if the highest screening concentration is 100 μM, and this is made from a 100 mM stock, 1×DMSO is 0.1%, so 2×DMSO is 0.2%. This plate is used to titrate out the compound, 4 rows per compound. • 2. In a sterile 15 mL tube, make a 2×solution of the highest screening concentration of compound in growth medium plus 2×DMSO. 1 mL per cell line is needed. The starting concentration of the compound is usually 100 μM but this concentration may vary depending upon the solubility of the compound. • 3. Transfer 240 μL of the 2×starting compound solution to quadruplicate wells in column 12 of the 96-well round bottom plate. Do 1:2 serial dilutions across the plate from right to left by transferring 120 μL from column 12 to column 11, column 11 to 10 and so on through column 2. Transfer 100 μL of compound dilutions, and 100 μL of medium in column 1, onto 100 μL medium on cells in corresponding wells of 96-well flat bottom plate. Total volume per well should be 200 μL. • 4. Return the plate to the incubator and incubate for 3 days. Day 5: Development of Assay
This part of assay is carried out on the bench. • 1. Aspirate or pour off medium. Add 200 μL cold 10% TCA to each well to fix cells. Incubate plate for at least 60 min. at 4° C. • 2. Discard TCA and rinse wells 5 times with tap water. Dry plates upside down on paper towels. • 3. Stain cells with 100 μL/well 0.4% SRB for 10 min. • 4. Pour off SRB and rinse wells 5 times with 1% acetic acid. Dry plates completely upside down on paper towels. • 5. Solubilize dye with 100 μL/well 10 mM Tris base for 5-10 min. on shaker. • 6. Read plates on Dynatech ELISA Plate Reader at 570 nm with reference at 630 nm.

EGF Receptor = target: T1, EGF Receptor (Homo sapiens, UniProt P00533); assay: EGF Receptor kinase activity in whole cells (EGFR-NIH3T3 assay, EGFR ELISA); format: cell-based; conditions: Table 5, EGFR ELISA assay in whole cells (EGFR-NIH3T3); read-out: IC50 A549
T1 construct: expressed in transfected cells; host or cells: NIH3T3 (EGFR-NIH3T3)
T1 sequence (P00533 25-1210): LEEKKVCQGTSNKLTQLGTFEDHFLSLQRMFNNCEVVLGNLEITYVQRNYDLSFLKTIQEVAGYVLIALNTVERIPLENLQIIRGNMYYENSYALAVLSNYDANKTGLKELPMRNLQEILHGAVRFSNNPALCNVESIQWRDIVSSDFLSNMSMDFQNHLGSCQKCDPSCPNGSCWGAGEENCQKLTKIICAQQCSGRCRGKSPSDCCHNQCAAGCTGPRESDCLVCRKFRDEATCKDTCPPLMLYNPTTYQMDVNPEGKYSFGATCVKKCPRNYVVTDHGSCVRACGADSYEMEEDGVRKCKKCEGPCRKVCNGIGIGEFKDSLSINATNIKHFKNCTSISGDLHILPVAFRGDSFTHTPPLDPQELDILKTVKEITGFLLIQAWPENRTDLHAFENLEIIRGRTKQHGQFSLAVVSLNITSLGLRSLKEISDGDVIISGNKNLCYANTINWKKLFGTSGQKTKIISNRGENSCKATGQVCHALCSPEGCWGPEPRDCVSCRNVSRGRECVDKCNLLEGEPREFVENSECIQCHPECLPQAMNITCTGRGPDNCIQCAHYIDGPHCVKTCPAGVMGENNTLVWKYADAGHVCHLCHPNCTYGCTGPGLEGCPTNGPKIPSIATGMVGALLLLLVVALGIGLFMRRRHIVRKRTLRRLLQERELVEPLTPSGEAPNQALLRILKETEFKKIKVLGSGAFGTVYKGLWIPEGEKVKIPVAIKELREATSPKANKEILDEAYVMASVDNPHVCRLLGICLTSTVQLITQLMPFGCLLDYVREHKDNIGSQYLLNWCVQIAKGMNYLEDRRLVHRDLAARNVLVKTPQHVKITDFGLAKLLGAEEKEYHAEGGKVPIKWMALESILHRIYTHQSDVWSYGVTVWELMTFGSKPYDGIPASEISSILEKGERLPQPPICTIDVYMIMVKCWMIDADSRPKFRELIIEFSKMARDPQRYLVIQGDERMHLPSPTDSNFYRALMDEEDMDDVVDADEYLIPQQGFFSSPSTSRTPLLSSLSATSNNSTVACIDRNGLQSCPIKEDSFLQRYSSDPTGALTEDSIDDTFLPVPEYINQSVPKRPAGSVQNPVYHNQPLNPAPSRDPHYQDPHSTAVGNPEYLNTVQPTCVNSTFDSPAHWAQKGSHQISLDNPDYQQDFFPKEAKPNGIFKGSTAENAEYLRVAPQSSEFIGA
Protocol: EGF Receptor kinase activity (EGFR-NIH3T3 assay) in whole cells was measured as described in detail in PCT Publication WO9640116, filed Jun. 5, 1996, by Tang et al., and entitled “Indolinone Compounds for the Treatment of Disease,” incorporated herein by reference in its entirety, including any drawings.

Q: `Nc1nc(N)c2c(Oc3ccccc3)cccc2n1` [Compound A-1, 2,4-Diamino-5-phenoxyquinazoline] was tested. Which IC50 [1] did it give?
A: The IC50 was 15.9 µM.

Q: And the IC50 (EGF Receptor)?
A: Its IC50 is 24.6 µM.

Q: Which IC50 (EGF Receptor) does the source give for `COc1ccc(Oc2cccc3nc(N)nc(N)c23)cc1` [Compound A-6, 2,4-Diamino-5-(4-methoxyphenoxy)quinazoline] here?
A: The IC50 was over 100 µM.

Q: What does the source list for `Nc1nc(N)c2c(Oc3ccc(F)cc3)cccc2n1` [Compound A-7, 2,4-Diamino-5-(4-fluorophenoxy)quinazoline]?
A: IC50 [1]: 17.7 µM; IC50 (EGF Receptor): > 100 µM

Q: For `CC(C)(C)c1ccc(Oc2cccc3nc(N)nc(N)c23)cc1` [Compound A-8, 2,4-Diamino-5-(4-tert-butylphenoxy)quinazoline], which IC50 [1] is on record?
A: Its IC50 is 77.9 µM.

Q: How did the IC50 [1] turn out when `COc1ccccc1Oc1cccc2nc(N)nc(N)c12` [Compound A-22, 2,4-Diamino-5-(2-methoxyphenoxy)quinazoline] was run?
A: The IC50 was 26 µM.

Q: What about the IC50 (EGF Receptor) of the same molecule?
A: Its IC50 is over 100 µM.

Q: What does the source list for `COc1cccc(Oc2cccc3nc(N)nc(N)c23)c1` [Compound A-23, 2,4-Diamino-5-(3-methoxyphenoxy)quinazoline]?
A: IC50 [1]: 18 µM; IC50 (EGF Receptor): 17.2 µM

Q: With `Nc1ncnc2cccc(Oc3ccc(OCc4ccccc4)cc3)c12` [Compound A-28, 4-Amino-5-(4-benzyloxyphenoxy)quinazoline] as the molecule, how does the IC50 [1] read?
A: The IC50 was 32 µM.

Q: What about the IC50 (EGF Receptor) of the same molecule?
A: The IC50 was 75.1 µM.
